Converted amounts (≈) assume the structure as drawn.
Assays:
[1] = test system: P. acnes; assay: Agar dilution method: growth of P. acnes and MIC, fatty acid compounds in combination with other compounds; assay type: cell-based, Propionibacterium acnes
Method: Several compounds including fatty acids such as DGLA, 15-OHEPA, and 15-HETrE were tested to determine their capacity to inhibit the growth of P. acnes. In an exemplary method, an agar dilution method was used to determine the minimum inhibitory concentration (MIC) of each tested compound. Briefly, the agar dilution method involved preparing a series of concentrations of each compound (e.g., nicotinamide, benzoyl peroxide, adapalene, metronidazole, DGLA, 15-OHEPA, and 15-HETrE) in a Reinforced Clostridial Agar (RCA) media that facilitates growth of P. acnes under anaerobic conditions. An inoculum of P. acnes was prepared by incubation of P. acnes for approximately seven days at 35-37° C. to achieve a ≧1.0 OD600 inoculum of P. acnes in RCM broth. A portion of this inoculum was then added to the surface of each plate as a 10 μL spot and incubated at 35-37° C. for 72 hours or more. Growth of P. acnes was then observed and compared to control plates in which no compound has been added, and positive inhibition plates prepared with erythromycin. […] The growth of P. acnes in the presence of nicotinamide, benzoyl peroxide, adapalene, metronidazole, DGLA, 15-OHEPA, and 15-HETrE was determined with varying concentrations of the compound (see, Table 2). Next, the MIC was determined as the concentration at which a marked reduction (+) occurs in the appearance of growth on the test plate (as per Clinical and Laboratory Standards Institute M11-A7). The compounds tested singly in Example 1 were tested in combination with one another to determine the capacity of the combination to inhibit the growth of P. acnes. In an exemplary method, the MIC was determined for each of the combination as described in Example 1. Briefly, test combinations included DGLA with nicotinamide, benzoyl peroxide, adapalene, or metronidazole; 15-HETrE with nicotinamide, benzoyl peroxide, adapalene, or metronidazole; and 15-OHEPA with nicotinamide, benzoyl peroxide, adapalene, or metronidazole. The tables below show the growth of P. acnes in the presence of 0.4 or 1.0 mg/mL DGLA with varying concentrations of nicotinamide, benzoyl peroxide, adapalene, or metronidazole (Table 3); the growth of P. acnes in the presence of 0.01 or 0.05 mg/mL 15-HETrE with varying concentrations of nicotinamide, benzoyl peroxide, adapalene, or metronidazole (Table 5); and the growth of P. acnes in the presence of 0.5 or 0.1 mg/mL 15-OHEPA with varying concentrations of nicotinamide, benzoyl peroxide, adapalene, or metronidazole (Table 7).

[2] = test system: P. acnes; assay: Agar dilution method: growth of P. acnes and MIC, compounds tested singly; assay type: cell-based, Propionibacterium acnes; parameters: key to Growth Index (+++, ++, +, −) Plate 1 / Growth Index (+++, ++, +, −) Plate 2 / Growth Index (+++, ++, +, −) Plate 3 / Growth Index (+++, ++, +, −) Avg: +++: confluent growth (comparable to control); ++: less confluent growth; +: marked reduction in growth to multiple tiny, single colonies; −: no growth present; conditions: for MIC: Cutibacterium acnes, compound alone, MIC = concentration with marked reduction (+) of growth, read-out: MIC (mg/mL) as per P-11-0007 or P-11-0008 Addendum A
Method: Several compounds including fatty acids such as DGLA, 15-OHEPA, and 15-HETrE were tested to determine their capacity to inhibit the growth of P. acnes. In an exemplary method, an agar dilution method was used to determine the minimum inhibitory concentration (MIC) of each tested compound. Briefly, the agar dilution method involved preparing a series of concentrations of each compound (e.g., nicotinamide, benzoyl peroxide, adapalene, metronidazole, DGLA, 15-OHEPA, and 15-HETrE) in a Reinforced Clostridial Agar (RCA) media that facilitates growth of P. acnes under anaerobic conditions. An inoculum of P. acnes was prepared by incubation of P. acnes for approximately seven days at 35-37° C. to achieve a ≧1.0 OD600 inoculum of P. acnes in RCM broth. A portion of this inoculum was then added to the surface of each plate as a 10 μL spot and incubated at 35-37° C. for 72 hours or more. Growth of P. acnes was then observed and compared to control plates in which no compound has been added, and positive inhibition plates prepared with erythromycin. […] The growth of P. acnes in the presence of nicotinamide, benzoyl peroxide, adapalene, metronidazole, DGLA, 15-OHEPA, and 15-HETrE was determined with varying concentrations of the compound (see, Table 2). Next, the MIC was determined as the concentration at which a marked reduction (+) occurs in the appearance of growth on the test plate (as per Clinical and Laboratory Standards Institute M11-A7).

| MIC [2] [µg/mL] | Compound | Growth Index (+++, ++, +, −) Avg ([2]; compound at 0.2 mg/mL in agar) | Growth Index (+++, ++, +, −) Plate 1 ([2]; compound at 0.2 mg/mL in agar) | Growth Index (+++, ++, +, −) Plate 2 ([2]; compound at 0.2 mg/mL in agar) | Growth Index (+++, ++, +, −) Plate 3 ([2]; compound at 0.2 mg/mL in agar) | Growth Index (+++, ++, +, −) Avg ([2]; compound at 0.4 mg/mL in agar) | Growth Index (+++, ++, +, −) Plate 1 ([2]; compound at 0.4 mg/mL in agar) | Growth Index (+++, ++, +, −) Plate 2 ([2]; compound at 0.4 mg/mL in agar) | Growth Index (+++, ++, +, −) Plate 3 ([2]; compound at 0.4 mg/mL in agar) | Growth Index (+++, ++, +, −) Avg ([2]; compound at 0.6 mg/mL in agar) | Growth Index (+++, ++, +, −) Plate 1 ([2]; compound at 0.6 mg/mL in agar) | Growth Index (+++, ++, +, −) Plate 2 ([2]; compound at 0.6 mg/mL in agar) | Growth Index (+++, ++, +, −) Plate 3 ([2]; compound at 0.6 mg/mL in agar) | Growth Index (+++, ++, +, −) Avg ([2]; compound at 0.8 mg/mL in agar) | Growth Index (+++, ++, +, −) Plate 1 ([2]; compound at 0.8 mg/mL in agar) | Growth Index (+++, ++, +, −) Plate 2 ([2]; compound at 0.8 mg/mL in agar) | Growth Index (+++, ++, +, −) Plate 3 ([2]; compound at 0.8 mg/mL in agar) | other results |
| --- | --- | --- | --- | --- | --- | --- | --- | --- | --- | --- | --- | --- | --- | --- | --- | --- | --- | --- |
| 600 to 800 (≈ 2480 to 3300 µM) | O=C(OOC(=O)c1ccccc1)c1ccccc1 [Benzoyl Peroxide, benzoyl peroxide] | +++ | +++ | +++ | +++ | +++ | +++ | +++ | +++ | ++ | ++ | +++ | ++ | + | + | + | + | MIC (mg/mL) with 0.05 mg/mL 15-HETrE spike ([1]; 0.05 mg/mL 15-HETrE spike, itself an inhibitory concentration): <0.2 mg/mL; MIC (mg/mL) with 0.1 mg/mL 15-OHEPA spike ([1]; 0.1 mg/mL 15-OHEPA spike, itself an inhibitory concentration): <0.2 mg/mL; growth of P. acnes in combination with 15-HETrE compared with 15-HETrE alone ([1]; in combination with 15-HETrE): did not reduce the growth of P. Acnes below that of 15-HETrE used alone |
| 400 to 600 (≈ 1310 to 1960 µM) | CCCCC/C=C\C/C=C\C/C=C\CCCCCCC(=O)O [DGLA, cis-8,11,14-eicosatrienoic acid] | +++ | +++ | +++ | +++ | +++ | +++ | +++ | +++ | + | ++ | − | ++ | + | ++ | + | + | effect on growth of P. acnes on its own ([2]; 0.4 mg/ml): no effect on its own; Growth Index (+++, ++, +, −) Avg ([2]; compound at 1.0 mg/mL in agar): +; Growth Index (+++, ++, +, −) Plate 1 ([2]; compound at 1.0 mg/mL in agar): +; Growth Index (+++, ++, +, −) Plate 2 ([2]; compound at 1.0 mg/mL in agar): +; Growth Index (+++, ++, +, −) Plate 3 ([2]; compound at 1.0 mg/mL in agar): + |
| 0.01 to 0.05 (≈ 0.0136 to 0.0681 µM) | CC[C@H]1OC(=O)[C@H](C)[C@@H](O[C@H]2C[C@@](C)(OC)[C@@H](O)[C@H](C)O2)[C@H](C)[C@@H](O[C@@H]2O[C@H](C)C[C@H](N(C)C)[C@H]2O)[C@](C)(O)C[C@@H](C)C(=O)[C@H](C)[C@@H](O)[C@]1(C)O [Erythromycin] |  |  |  |  |  |  |  |  |  |  |  |  |  |  |  |  |  |
